Several values for one entry are separate records, joined by “and”; a condition that tells them apart may be missing. Equal values may be shown once. Read-outs that look alike come from different tables or passages of the source.
Experiments:
[1] = test system: KU-7-GFP human bladder cancer; assay: KU-7-GFP human bladder cancer orthotopic mouse model, intravesical instillation; type: in vivo, mice
Experimental: An orthotopic mouse model was utilized to evaluate a proliposomal formulation of paclitaxel. The bladder cancer cell line KU7/GFP clone 6 was used for these studies. The KU7/GFP clone 6 is stably transfected with the green-fluorescent protein, and these cell lines were used for all in vivo studies. The KU7/GFP clone 6 cell lines are described in Watanabe et al. The cells were grown in modified minimum essential medium supplemented with 10% FCS and incubated at 37° C. in 5% CO2. Tumors generated from KU7/GFP cells were generated […]. The tumors were implanted into the bladder of female mice. […] The foregoing formulations and saline were administered at day 0, day 7, and day 14 post-tumor implantation.
KU-7-GFP human bladder cancer orthotopic MetaMouse® model: The human bladder cancer cell line KU-7 expressing GFP was from the AntiCancer Inc. cell-line bank. The animals were transplanted by intravesical instillation using the KU-7-GFP bladder cancer cells. The animals were anesthetized with a mixture of ketamine, acepromazine and xylazine. The surgical area was sterilized using iodine and alcohol. After proper exposure of the bladder following a lower midline abdominal incision, the bladder was catheterized with a 24-G angiocatheter, drained and injured by a scratch with a needle in the bladder lining. KU-7-GFP (100 μl 2×10^6) cells were instilled into the bladder and a purse string was placed to occlude the urethra in order for the cells to be retained for 1 hour. The bladder was then returned to the abdominal cavity. The incision in the abdominal wall was closed with a 6-0 surgical suture in one layer. The animals were kept under isoflurane anesthesia during surgery. All procedures of the operation described above were performed under a 7× magnification microscope (Olympus). Animals were kept in a barrier facility under HEPA filtration.
On day 7 after tumor cell implantation, fifty animals were randomly divided into five groups (each treatment group contained n=10 mice) on day 7 after tumor implantation. Treatments in all groups for all mice were initiated on the same day, which was considered Study Day 0. Freshly reconstituted formulation (50 μL) was instilled intravesically using a 24 G/¾″ IV catheter, and the urethra was occluded using a purse string knot. The formulation was held in the bladder for a period of 1 h. After 1 h, the purse string was cut open, and the bladder was allowed to void naturally. The same procedure was followed on days 0, 7, 14 […].
In vitro human bladder cancer cell lines (T24, KU7) were used to assess IC50 values. In vivo studies were carried out in nude mice inoculated with KU7-GFP cell-lines. After KU7 bladder tumor inoculation, weekly (×3) intravesical instillations (3 groups: PLIP; PTX/DMSO or PTX/Nab; or saline) were delivered and tumor growth measured. Pharmacokinetic studies were carried out in rat species. A GLP compliant acute-expanded toxicology/toxicokinetics study in rat species was also performed.

[2] = test system: human bladder epithelial carcinoma cell-line 5637 (ATCC HTB-9); assay: Sulforhodamine B (SRB) assay, 5637 cells; type: cell-based; conditions: 72 h treatment
Experimental: (§1) A sulforhodamine B (SRB) assay-based approach was employed to determine the inhibitory concentration (IC)50 of paclitaxel formulations PLIP-003, PLIP-006, PLIP-021, and PLIP-023 against the human bladder epithelial carcinoma cell-lines T24 (ATCC® HTB-4™), 5637 (ATCC® HTB-9™) and HT-1376 (ATCC® CRL-1472™). For use in the assays, the paclitaxel formulations were redispersed in normal saline to a concentration of 2-5 mg/mL paclitaxel. The dispersed formulations formed clear solutions. Pure, unformulated, paclitaxel solution ([6 mg/100 μL] in DMSO) was used as a control formulation.
(§2) Cells were seeded onto 96-well plates at a density of 5×10^3 cells/well and cultured for 24 h at 37° C. and 5% CO2. The dispersed paclitaxel formulations and pure drug controls were added to the media of the plated cell cultures. […] Protein-bound SRB was detected by adding 100 μl 10 mM Tris base solution to each well, and allowing 5 to 10 minutes for Tris solution to solubilize SRB. The plates were read using a microplate reader at an absorbance of 565 nm. […]
(§3) Cells were seeded onto 96-well plates at a density of 5×10^3 cells/well and cultured for 24 h at 37° C. and 5% CO2. […] Protein-bound SRB was detected by adding 100 μl 10 mM Tris base solution to each well, and allowing 5 to 10 minutes for Tris solution to solubilize SRB. The plates were read using a microplate reader at an absorbance of 565 nm.

[3] = test system: human bladder epithelial carcinoma cell-line T24 (ATCC HTB-4); assay: Sulforhodamine B (SRB) assay, T24 cells; type: cell-based; conditions: 72 h treatment
Experimental: as §1, §2, §3

[4] = test system: human bladder epithelial carcinoma cell-line HT-1376 (ATCC CRL-1472); assay: Sulforhodamine B (SRB) assay, HT-1376 cells; type: cell-based; conditions: HT1376; cisplatin formulations; 72 h treatment
Experimental: as §1, §2, §3

[5] = Redispersion / dissolution in normal saline; type: physicochemical
Experimental: as §1
A sulforhodamine B (SRB) assay-based approach was employed to determine the inhibitory concentration IC50 of cisplatin formulations PLIC-002 and PLIC-009 against the human bladder carcinoma epithelial cell-lines T24 (ATCC® HTB-4™), 5637 (ATCC® HTB-9™) and HT-1376 (ATCC® CRL-1472™). For use in the assays, the cisplatin formulations were redispersed in normal saline to a concentration 2 mg/mL cisplatin. The redispersed formulations formed clear solutions. Pure cisplatin solution 1 mg/mL in normal saline (unformulated) was used as a control. Higher concentrations of pure cisplatin were not used because cisplatin will not form a clear solution above 1 mg/mL in normal saline.

[6] = 5.0 mg/kg, nude mice KU7-GFP, weekly intravesical instillations
[7] = 5.0 mg/kg, nude mice KU7-GFP, weekly intravesical instillations, * p < 0.05 vs saline

IC50 ([2]; Homo sapiens, paclitaxel formulations, read-out: IC50) [µg/mL]	IC50 ([3]; Homo sapiens, T-24, paclitaxel formulations, read-out: IC50) [µg/mL]	Structure (SMILES)	Bladder Size [1, 6] [mm^2]	Tumor Size [1, 6] [mm^2]	% Bladder Overtaken by Tumor [1, 7] [%*]	% Complete Response [1, 7]	Final tumor area, measured by fluorescent method ([1]; Groups 3 and 4, title says Study Design 2, two weeks, five groups as in Study Design 1 (5 mg/kg once a week), individual mice, listed as PTX in DMSO, 5 mg/kg)	Final tumor area, measured by fluorescent method, mean ([1]; Groups 3 and 4, title says Study Design 2, two weeks, five groups as in Study Design 1 (5 mg/kg once a week), mean) [mm^2]	IC50 [4] [µg/mL]	IC50 ([2]; cisplatin formulations) [µg/mL]	highest concentration forming a clear solution in normal saline [5] [mg/mL]	IC50 ([3]; cisplatin formulations) [µg/mL]
< 0.1	< 0.1	CC(=O)O[C@H]1C(=O)[C@@]2(C)[C@H]([C@H](OC(=O)c3ccccc3)[C@]3(O)C[C@H](OC(=O)[C@H](O)[C@@H](NC(=O)c4ccccc4)c4ccccc4)C(C)=C1C3(C)C)[C@]1(OC(C)=O)CO[C@@H]1C[C@@H]2O [Paclitaxel in DMSO, Paclitaxel]	13	0.05	10	25% (1/4)	16.39 mm^2 and 5.37 mm^2 and 15.96 mm^2	12.58	–	–	–	–
–	–	N.N.[Cl][Pt][Cl] [Pure drug, Cis-diamminedichloroplatinum(II)]	–	–	–	–	–	–	1.11	0.441	≤ 1	0.788

— patent publication US11229602B2, “Formulations for treating bladder cancer” (priority 2016, dated 2022)
